{
  "source": "patent US5187082A",
  "about": "“Process for producing A83850 antibiotics” (Eli Lilly and Company, priority 1990, dated 1993)",
  "note": "Positions of bridges follow the written chain, without caps; N, C: chain ends. Non-standard residues stand in square brackets, D forms with d. Residues, ends and D or L forms follow the SMILES beside them. *: point of attachment. Ileψ(thiazoline)Cys = CC[C@H](C)[C@H](N)C1=N[C@H](C(=O)*)CS1; dOrn = NCCC[C@@H](N)C(=O)O",
  "data": [
    {"system": "Culture A83850 (Amycolatopsis albus NRRL 18532)", "test": "Resistance of culture A83850 to antibiotics, sensitivity discs on seeded ISP No. 2 agar plates", "format": "cell-based", "details": "disc content printed per antibiotic", "method": "Resistance to antibiotics was measured by padding antibiotic sensitivity discs onto the surface of seeded ISP No. 2 agar plates.", "values": [
      {"compound": "CC[C@H](C)[C@H](N)C1=N[C@H](C(=O)N[C@@H](CC(C)C)C(=O)N[C@H](CCC(=O)O)C(=O)N[C@H](C(=O)N[C@H]2CCCCNC(=O)[C@H](CC(N)=O)NC(=O)[C@@H](CC(=O)O)NC(=O)[C@H](Cc3cnc[nH]3)NC(=O)[C@@H](Cc3ccccc3)NC(=O)[C@H]([C@@H](C)CC)NC(=O)[C@@H](CCCN)NC2=O)[C@@H](C)CC)CS1", "note": "[bacitracin] ({Ileψ(thiazoline)Cys}-L[dE]IK[dOrn]I[dF]H[dD]N; lactam 4-C)", "Resistance or inhibition of culture A83850 by antibiotic disc": "resistant"},
      {"compound": "CC(=O)OCC1=C(C(=O)O)N2C(=O)[C@@H](NC(=O)Cc3cccs3)[C@H]2SC1", "note": "[cephalothin]", "Resistance or inhibition of culture A83850 by antibiotic disc": "inhibited"},
      {"compound": "CCC[C@@H]1C[C@@H](C(=O)N[C@@H]([C@H]2O[C@H](SC)[C@H](O)[C@@H](O)[C@H]2O)[C@@H](C)O)N(C)C1", "note": "[lincomycin]", "Resistance or inhibition of culture A83850 by antibiotic disc": "inhibited"},
      {"compound": "CO[C@H]1C[C@H](O[C@H]2[C@H](C)[C@@H](O[C@@H]3O[C@H](C)C[C@H](N(C)C)[C@H]3O)[C@@H](C)C[C@@]3(CO3)C(=O)[C@H](C)[C@@H](O)[C@@H](C)[C@@H](C)OC(=O)[C@@H]2C)O[C@@H](C)[C@@H]1O", "note": "[oleandomycin]", "Resistance or inhibition of culture A83850 by antibiotic disc": "resistant"},
      {"compound": "CC1(C)S[C@@H]2[C@H](NC(=O)Cc3ccccc3)C(=O)N2[C@H]1C(=O)O", "note": "[penicillin]", "Resistance or inhibition of culture A83850 by antibiotic disc": "inhibited"},
      {"compound": "CO[C@H]1/C=C/O[C@@]2(C)Oc3c(C)c(O)c4c(O)c(c(/C=N/N5CCN(C)CC5)c(O)c4c3C2=O)NC(=O)/C(C)=C\\C=C\\[C@H](C)[C@H](O)[C@@H](C)[C@@H](O)[C@@H](C)[C@H](OC(C)=O)[C@@H]1C", "note": "[rifampin]", "Resistance or inhibition of culture A83850 by antibiotic disc": "resistant"},
      {"compound": "[H]/N=C(/N)N[C@H]1[C@H](O)[C@@H](O)[C@H](O[C@@H]2O[C@@H](C)[C@](O)(C=O)[C@H]2O[C@@H]2O[C@@H](CO)[C@H](O)[C@@H](O)[C@@H]2NC)[C@@H](N/C(N)=N\\[H])[C@@H]1O", "note": "[streptomycin]", "Resistance or inhibition of culture A83850 by antibiotic disc": "inhibited"},
      {"compound": "CN(C)[C@@H]1C(O)=C(C(N)=O)C(=O)[C@@]2(O)C(O)=C3C(=O)c4c(O)cccc4[C@@](C)(O)[C@H]3C[C@@H]12", "note": "[tetracycline]", "Resistance or inhibition of culture A83850 by antibiotic disc": "resistant"},
      {"compound": "NC[C@H]1O[C@H](O[C@H]2[C@H](O)[C@@H](O[C@H]3O[C@H](CO)[C@@H](O)[C@H](N)[C@H]3O)[C@H](N)C[C@@H]2N)[C@H](N)C[C@@H]1O", "note": "[tobramycin]", "Resistance or inhibition of culture A83850 by antibiotic disc": "inhibited"},
      {"compound": "gentamicin", "Resistance or inhibition of culture A83850 by antibiotic disc": "inhibited"},
      {"compound": "neomycin", "Resistance or inhibition of culture A83850 by antibiotic disc": "resistant"}
    ]}
  ]
}
